We go through two compounds from US8859628B2, “Method for preventing, treating and diagnosing disorders of protein aggregation” (priority 2003, dated 2014).

Assay [1] deals with TgCRND8 mice. The assay can be described thus: Morris Water Maze, spatial reference memory version, five-day trial paradigm (prevention study). The assay is classed as in vivo, mouse. Conditions: 6 months of age. The procedure: Age and sex-matched cohorts of TgCRND8 mice and non-transgenic littermates (n=35 in each cohort) were either untreated, or were given a compound of the present invention as indicated below at 30 mg/day/mouse beginning at age of about 6 weeks. The mice were followed for outcome measures cognitive function, brain Aβ levels, brain pathology, and survival at 4 months and 6 months of age.
Two cohorts entered the study at 6 weeks of age and outcomes were analyzed at 4- and 6-months of age. The body weight, coat characteristics and in cage behavior was monitored. All experiments were performed according to the Canadian Council on Animal Care guidelines.
Behavioral tests—After non-spatial pre-training, mice underwent place discrimination training for 5 days with 4 trials per day. Behavioral data was analyzed using a mixed model of factorial analysis of variance (ANOVA) with drug or genotype and training sessions as repeated measure factors.
The cognitive function of TgCRND8 mice was assessed using the spatial reference memory version of the Morris Water Maze using a five-day trial paradigm (FIGS. 1C-1H). […] The improved performance was also not due to nutritional or caloric effects because body weight, activity, and coat condition were not different between treated and untreated cohorts. […] Gender effects were not significant between any treatment group (p=0.85).

Assay [2] has as its system TgCRND8 mice. The assay can be described thus: Cerebral amyloid plaque burden (anti-Aβ immunostaining, image analysis). The assay is classed as in vivo, mouse. The procedure: (§1) Cerebral amyloid burden—Brains were removed and one hemisphere was fixed in 4% paraformaldehyde and embedded in paraffin wax in the mid saggital plane. To generate sets of systematic uniform random sections, 5 μm serial sections were collected across the entire hemisphere. Sets of sections at […] intervals were used for analyses (10-14 sections/set). Plaque were identified after antigen retrieval with formic acid, and incubated with primary anti-Aβ antibody (Dako M-0872), followed by secondary antibody (Dako StreptABCcomplex/horseradish kit). End products were visualized with DAB counter-stained with hematoxylin. Amyloid plaque burden was assessed using Leco IA-3001 image analysis software interfaced with Leica microscope and Hitachi KP-M1U CCD video camera. Vascular burden was analyzed similarly and a dissector was used to measure the diameter of affected vessels.
as §1, with “camera.” for “camera. Vascular burden was analyzed similarly and a dissector was used to measure the diameter of affected vessels.”

Assay [3] has as its system TgCRND8 mice. In words: Cerebral Aβ content (Aβ40 and Aβ42 kits on hemi-brain homogenates). Details: Total Aβ: unit not given here. The assay is classed as in vivo, mouse. The procedure: (§2) Plasma and Cerebral Aβ Content—Hemi-brain samples were homogenized in a buffered sucrose solution, followed by either 0.4% diethylamine/100 mM NaCl for soluble Aβ levels or cold formic acid for the isolation of total Aβ. After neutralization the samples were diluted and analyzed for Aβ40 and Aβ42 using commercially available kits (BIOSOURCE International). Each hemisphere was analyzed in triplicate with the mean±SEM reported. Western blot analyses were performed on all fractions using urea gels for Aβ species analyses. Aβ was detected using 6E10 (BIOSOURCE International) and Enhanced Chemiluminenscence (Amersham).
(§3) Plasma and Cerebral Aβ Content—Hemi-brain samples were homogenized in a buffered sucrose solution, followed by either 0.4% diethylamine/100 mM NaCl for soluble Aβ levels or cold formic acid for the isolation of total Aβ. After neutralization the samples were diluted and analyzed for Aβ40 and Aβ42 using commercially available kits (BIOSOURCE International). Each hemisphere was analyzed in triplicate with the mean±SEM reported.

Assay [4] relates to TgCRND8 mice. The assay can be described thus: Survival census (Kaplan-Meier). Conditions: vs untreated TgCRND8. The assay is classed as in vivo, mouse. The procedure:
Survival Census—The probability of survival was assessed by the Kaplan-Meier technique, computing the probability of survival at every occurrence of death, thus making it suitable for small sample sizes. For the analyses of survival, 35 mice were used for each treatment group. The comparison between treatments was reported using the Tarone-Ware test.

Assay [5] has as its target T1, Aβ42 (Homo sapiens, UniProt P05067).
T1 construct: The importance of residues 1-42 (Aβ42) in Alzheimer's disease was highlighted
Conditions: cited from earlier work.

Assay [6] deals with TgCRND8 mice. In words: Plasma Aβ levels. In kind it is in vivo, mouse. The procedure: as §2, §3
Assay [7] deals with TgCRND8 mice. The assay can be described thus: Morris Water Maze, spatial reference memory version, three-day trial paradigm (treatment/reversal study). The assay is classed as in vivo, mouse. The settings on record: 1 month treatment from 5 months of age, three-day paradigm. The procedure:
A cohort entered the study at 5 months of age and outcomes were analyzed at 6-months of age. The body weight, coat characteristics and in cage behavior was monitored. All experiments were performed according to the Canadian Council on Animal Care guidelines.
Behavioral Test—Reversal Study—Mice entered the Morris water maze test with a hidden platform on day one without pretraining. Mice were tested for 3 days with six trials per day. On the fourth day, the platform was removed from the pool and each mouse received one 30-s swim probe trial. On the last day the animals underwent a cue test in order to evaluate swimming ability, eye sight and general cognition. The cue test is composed at the platform being placed in a different quadrant than that used for testing and is tagged with a flag. Animals are allowed 60 s to find the platform. […] Behavioural data was analysed using a mixed model of factorial analysis of variance (ANOVA) with drug or genotype and training sessions as repeated measure factors.
The cognitive function of TgCRND8 mice was assessed using the spatial reference memory version of the Morris Water Maze using a three day trial paradigm (FIGS. 4-8).
Behavioural data was analysed using a mixed model of factorial analysis of variance (ANOVA) with drug and genotype as between subject variables and training sessions as within subject variable.
In these experiments, the dosage and oral administration of compounds, and the behavioral and neurochemical assays were the same as those employed in the above treatment experiments.

Assay [8] has as its system AD patients. Conditions: human, in vivo; cited from earlier work.
Where [9] appears, read: 1 month treatment from 5 months of age.
[10] abbreviates: 1 month treatment, 30 mg/mouse/day from 5 months, analyzed at 6 months of age.
The mark [11] stands for this setting: 4 month prevention, 30 mg/mouse/day from 6 weeks of age.
Setting [12] is: 6 month prevention, 30 mg/mouse/day from 6 weeks of age.

T1 sequence (P05067 672-713 limits assumed): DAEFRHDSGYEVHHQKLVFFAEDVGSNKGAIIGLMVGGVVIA

Take `O[C@H]1[C@H](O)[C@@H](O)[C@H](O)[C@@H](O)[C@H]1O` [Myo-Inositol, myo-inositol, reference compound]: the “cognitive function, treated vs untreated TgCRND8 mice (words)” value in assay [1] is “did not alter cognitive function”. In addition, in assay [2] (setting [9]), the “plaque burden vs untreated” value is “did not affect the plaque burden or Aβ load”. Further, the results for the “Plaque Area” value in assay [2] (setting [10]), in assay [2] (setting [11]) and in assay [2] (setting [12]) were 469968 ± 35664 μm^2, 91902 ± 7453 μm^2 and 400013 ± 19638 μm^2, respectively. The figures for the “Plaque Count” value in assay [2] (setting [10]), in assay [2] (setting [11]) and in assay [2] (setting [12]) were 1324 ± 69, 649 ± 50 and 927 ± 78, respectively. Besides, the “Total Plaque Area/Total Brain Area” value is on record as 0.153 ± 0.088% in assay [2] (setting [10]), 0.023 ± 0.004% in assay [2] (setting [11]) and 0.100 ± 0.005% in assay [2] (setting [12]). Besides, in assay [3] (setting [9]), the “Aβ load vs untreated” value is listed as “did not affect the plaque burden or Aβ load”. The “Total Aβ” value in assay [3] (setting [10]) is recorded as 20490 ± 526; in assay [3] (setting [11]), 4969 ± 434; in assay [3] (setting [12]) it was 17489 ± 354. In addition, the “effect on survival of TgCRND8 mice” value in assay [4] is “did not affect overall survival significantly”. In addition, the “stabilization of Aβ42 micelle” value in assay [5] is on record as “stabilizes a small micelle of Aβ42”. The “Plasma Aβ Levels” value in assay [6] (1 month treatment) turned out to be 2110 ± 174 pg/mL; in assay [6] (4 month prevention), 942 ± 30 pg/mL; in assay [6] (6 month prevention), 969 ± 67 pg/mL. The “effect on plasma Aβ levels in comparison to untreated (words)” value in assay [6] (setting [9]) was “Neither myo-inositol, epi-inositol nor scyllo-inositol treatment had any effect on plasma Aβ levels”. In addition, in assay [7], the “cognitive function, treated TgCRND8 mice vs non-Tg littermates (words)” value is reported as “significantly different from treated non-Tg littermates”.
As to `O[C@H]1[C@H](O)[C@@H](O)[C@H](O)[C@@H](O)[C@H]1O` [inositol], in assay [8], the “CAMCOG subscales orientation and language” value is “did show significant improvement”.
